Assay results published in ChEMBL document CHEMBL1131212, “Synthesis and adrenergic activity of a new series of N-aryl dicyclopropyl ketone oxime ethers: SAR and stereochemical aspects” (J Med Chem, 1998).

molecular target: T1, Adrenergic receptor alpha-1 (Rattus norvegicus, UniProt P15823+P23944+P43140); experiment: Inhibition of alpha-1 adrenergic receptor isolated from rat ventricle homogenates; details: not given
T1 sequence (P15823 whole entry): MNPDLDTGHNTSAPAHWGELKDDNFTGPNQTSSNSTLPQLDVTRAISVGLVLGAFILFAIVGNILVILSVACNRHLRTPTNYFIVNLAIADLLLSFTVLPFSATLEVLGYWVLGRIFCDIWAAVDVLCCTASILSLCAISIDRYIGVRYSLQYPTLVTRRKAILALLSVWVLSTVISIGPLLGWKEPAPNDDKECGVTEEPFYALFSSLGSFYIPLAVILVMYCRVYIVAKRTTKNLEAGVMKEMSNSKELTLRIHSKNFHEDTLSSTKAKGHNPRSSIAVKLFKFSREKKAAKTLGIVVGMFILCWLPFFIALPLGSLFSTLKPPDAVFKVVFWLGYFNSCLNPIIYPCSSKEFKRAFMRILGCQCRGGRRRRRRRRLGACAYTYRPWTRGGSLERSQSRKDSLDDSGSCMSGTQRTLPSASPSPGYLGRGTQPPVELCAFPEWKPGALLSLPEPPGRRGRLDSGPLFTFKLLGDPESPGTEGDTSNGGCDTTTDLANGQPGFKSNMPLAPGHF
T1 sequence (P23944 whole entry): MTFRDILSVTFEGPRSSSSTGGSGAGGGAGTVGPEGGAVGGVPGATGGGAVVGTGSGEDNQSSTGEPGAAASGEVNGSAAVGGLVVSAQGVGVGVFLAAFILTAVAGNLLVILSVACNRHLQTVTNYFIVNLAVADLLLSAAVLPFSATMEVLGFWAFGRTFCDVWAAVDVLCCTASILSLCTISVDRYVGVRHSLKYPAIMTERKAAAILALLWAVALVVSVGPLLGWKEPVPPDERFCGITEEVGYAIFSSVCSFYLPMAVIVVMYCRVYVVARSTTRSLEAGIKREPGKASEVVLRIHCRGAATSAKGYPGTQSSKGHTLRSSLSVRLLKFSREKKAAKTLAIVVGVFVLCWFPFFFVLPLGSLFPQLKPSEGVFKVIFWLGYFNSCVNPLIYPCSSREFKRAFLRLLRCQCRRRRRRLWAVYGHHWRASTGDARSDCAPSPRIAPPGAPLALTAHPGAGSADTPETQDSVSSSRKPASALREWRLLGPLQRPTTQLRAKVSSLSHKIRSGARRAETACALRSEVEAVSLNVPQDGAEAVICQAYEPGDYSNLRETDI
T1 sequence (P43140 whole entry): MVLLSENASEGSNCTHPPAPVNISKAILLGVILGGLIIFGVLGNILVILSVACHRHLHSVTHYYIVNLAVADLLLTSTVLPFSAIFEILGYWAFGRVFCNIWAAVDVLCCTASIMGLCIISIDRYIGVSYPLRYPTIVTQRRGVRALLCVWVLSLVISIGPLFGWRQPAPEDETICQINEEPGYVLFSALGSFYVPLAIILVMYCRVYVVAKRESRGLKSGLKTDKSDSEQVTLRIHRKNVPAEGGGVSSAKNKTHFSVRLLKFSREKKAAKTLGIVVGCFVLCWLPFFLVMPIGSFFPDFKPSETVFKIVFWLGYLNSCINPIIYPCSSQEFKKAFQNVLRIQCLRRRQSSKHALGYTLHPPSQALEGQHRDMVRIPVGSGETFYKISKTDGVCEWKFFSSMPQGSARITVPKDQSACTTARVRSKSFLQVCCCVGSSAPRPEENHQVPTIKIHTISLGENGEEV

Structure (SMILES) | IC50
CCOC(=O)c1ccc(NCC(O)CON=C(C2CC2)C2CC2)cc1 (stereo not given) | 95100 nM
CC(C)(C)c1ccc(NCC(O)CON=C(C2CC2)C2CC2)cc1 (stereo not given) | 70800 nM
OC(CNc1ccc(C(F)(F)F)cc1)CON=C(C1CC1)C1CC1 (stereo not given) | > 100000 nM
Cc1ccccc1NCC(O)CON=C(C1CC1)C1CC1 (stereo not given) | 22000 nM
OC(CNc1nc2ccccc2s1)CON=C(C1CC1)C1CC1 (stereo not given) | > 100000 nM
OC(CNc1ccc(Br)cc1)CON=C(C1CC1)C1CC1 (stereo not given) | 19000 nM
OC(CNc1ccc(F)cc1)CON=C(C1CC1)C1CC1 (stereo not given) | 26200 nM

molecular target: Adrenergic receptor beta (Rattus norvegicus, UniProt P18090+P10608+P26255); experiment: Inhibition of beta adrenergic receptor isolated from rat ventricle homogenates.; details: not given

Structure (SMILES) | IC50
CCOC(=O)c1ccc(NCC(O)CON=C(C2CC2)C2CC2)cc1 (stereo not given) | 12.8 nM
CC(C)(C)c1ccc(NCC(O)CON=C(C2CC2)C2CC2)cc1 (stereo not given) | 3.4 nM
OC(CNc1ccc(C(F)(F)F)cc1)CON=C(C1CC1)C1CC1 (stereo not given) | 13.8 nM
Cc1ccccc1NCC(O)CON=C(C1CC1)C1CC1 (stereo not given) | 13 nM
OC(CNc1nc2ccccc2s1)CON=C(C1CC1)C1CC1 (stereo not given) | 3.4 nM
OC(CNc1ccc(Br)cc1)CON=C(C1CC1)C1CC1 (stereo not given) | 4.1 nM
OC(CNc1ccc(F)cc1)CON=C(C1CC1)C1CC1 (stereo not given) | 12.4 nM

species: Cavia porcellus; experiment: Chronotropic effect studied in right atria isolated from guinea pig and is expressed in pA2.; details: read-out: pA2 (converted)

Structure (SMILES) | Kb
CCOC(=O)c1ccc(NCC(O)CON=C(C2CC2)C2CC2)cc1 (stereo not given) | 79.4 nM
CC(C)(C)c1ccc(NCC(O)CON=C(C2CC2)C2CC2)cc1 (stereo not given) | 12.6 nM
OC(CNc1ccc(C(F)(F)F)cc1)CON=C(C1CC1)C1CC1 (stereo not given) | 63.1 nM
Cc1ccccc1NCC(O)CON=C(C1CC1)C1CC1 (stereo not given) | 126 nM
OC(CNc1nc2ccccc2s1)CON=C(C1CC1)C1CC1 (stereo not given) | 15.8 nM
OC(CNc1ccc(Br)cc1)CON=C(C1CC1)C1CC1 (stereo not given) | 20 nM
OC(CNc1ccc(F)cc1)CON=C(C1CC1)C1CC1 (stereo not given) | 631 nM

species: Rattus norvegicus; experiment: The compound was tested for percent increase in heart rate with respect to that measured after isoprenaline in 5-10 animals and showing significant increase (p <= 0.05) with respect to baseline values (293 +/- 7 to 310 +/- 5 […]).; assay type: functional; details: not given

Structure (SMILES) | Increase
CC(C)(C)c1ccc(NCC(O)CON=C(C2CC2)C2CC2)cc1 (stereo not given) | 44%
OC(CNc1ccc(C(F)(F)F)cc1)CON=C(C1CC1)C1CC1 (stereo not given) | 47%
Cc1ccccc1NCC(O)CON=C(C1CC1)C1CC1 (stereo not given) | 37%
OC(CNc1ccc(F)cc1)CON=C(C1CC1)C1CC1 (stereo not given) | 74%

species: Rattus norvegicus; experiment: The compound was tested for percent increase in heart rate with respect to that measured after isoprenaline in 5-10 animals.; assay type: functional; details: not given

Structure (SMILES) | Increase
CCOC(=O)c1ccc(NCC(O)CON=C(C2CC2)C2CC2)cc1 (stereo not given) | 10%
OC(CNc1nc2ccccc2s1)CON=C(C1CC1)C1CC1 (stereo not given) | 10%
OC(CNc1ccc(Br)cc1)CON=C(C1CC1)C1CC1 (stereo not given) | 10%

tested on: Rattus norvegicus; experiment: Tested for MED (smallest dose giving maximum effect) evaluated by dose-response curve, from 0.1 to 5 mg/kg in 5-10 animals on iv administration.; assay type: functional; details: dose mg/kg 0.1-5

Structure (SMILES) | MED
CCOC(=O)c1ccc(NCC(O)CON=C(C2CC2)C2CC2)cc1 (stereo not given) | 2.4 µmol/kg
CC(C)(C)c1ccc(NCC(O)CON=C(C2CC2)C2CC2)cc1 (stereo not given) | 2 µmol/kg
OC(CNc1ccc(C(F)(F)F)cc1)CON=C(C1CC1)C1CC1 (stereo not given) | 2.2 µmol/kg
Cc1ccccc1NCC(O)CON=C(C1CC1)C1CC1 (stereo not given) | 5.3 µmol/kg
OC(CNc1nc2ccccc2s1)CON=C(C1CC1)C1CC1 (stereo not given) | 4.1 µmol/kg
OC(CNc1ccc(Br)cc1)CON=C(C1CC1)C1CC1 (stereo not given) | 2.1 µmol/kg
OC(CNc1ccc(F)cc1)CON=C(C1CC1)C1CC1 (stereo not given) | 2.4 µmol/kg

species: Cavia porcellus; experiment: Ionotropic effect in electrically driven left atrial preparation (Atria isolated from guinea pig) and is expressed in pA2.; details: Cardiac atrium, read-out: pA2 (converted)

Structure (SMILES) | Kb
CCOC(=O)c1ccc(NCC(O)CON=C(C2CC2)C2CC2)cc1 (stereo not given) | 251 nM
CC(C)(C)c1ccc(NCC(O)CON=C(C2CC2)C2CC2)cc1 (stereo not given) | 50.1 nM
OC(CNc1ccc(C(F)(F)F)cc1)CON=C(C1CC1)C1CC1 (stereo not given) | 126 nM
Cc1ccccc1NCC(O)CON=C(C1CC1)C1CC1 (stereo not given) | 251 nM
OC(CNc1nc2ccccc2s1)CON=C(C1CC1)C1CC1 (stereo not given) | 25.1 nM
OC(CNc1ccc(Br)cc1)CON=C(C1CC1)C1CC1 (stereo not given) | 100 nM
OC(CNc1ccc(F)cc1)CON=C(C1CC1)C1CC1 (stereo not given) | 1260 nM

molecular target: Adrenergic receptor beta (Rattus norvegicus) (UniProt P18090+P10608+P26255); experiment: not given; details: not given

Structure (SMILES) | Specificity
CCOC(=O)c1ccc(NCC(O)CON=C(C2CC2)C2CC2)cc1 (stereo not given) | 7430
CC(C)(C)c1ccc(NCC(O)CON=C(C2CC2)C2CC2)cc1 (stereo not given) | 20800
OC(CNc1ccc(C(F)(F)F)cc1)CON=C(C1CC1)C1CC1 (stereo not given) | > 7250
Cc1ccccc1NCC(O)CON=C(C1CC1)C1CC1 (stereo not given) | 1690
OC(CNc1nc2ccccc2s1)CON=C(C1CC1)C1CC1 (stereo not given) | > 29400
OC(CNc1ccc(Br)cc1)CON=C(C1CC1)C1CC1 (stereo not given) | 4630
OC(CNc1ccc(F)cc1)CON=C(C1CC1)C1CC1 (stereo not given) | 2120

molecular target: Beta-1 adrenergic receptor (Cavia porcellus); experiment: Beta-1 adrenergic receptor-Antagonism in isolated guinea pig atria. ( for R-enantiomer); details: read-out: pA2 app (converted)

Structure (SMILES) | Kb
CC(C)(C)c1ccc(NCC(O)CON=C(C2CC2)C2CC2)cc1 (stereo not given) | 11 nM
